Measured values published in PMC12010006, “Subnanomolar MAS-related G protein-coupled receptor-X2/B2 antagonists with efficacy in human mast cells and disease models” (Signal Transduction and Targeted Therapy, 2025).
Where two headings read alike, the source gives them in different places. Positions of bridges follow the written chain, without caps; N, C: chain ends. Residues, ends and D or L forms follow the SMILES beside them.

Tests used:
[1] = MTT cytotoxicity assay, 1321N1 astrocytoma cells; type: cell-based; settings: human; for cytotoxicity at 72 h, 10000 nM: up to 10,000 nM, read-out: Cytotoxicity % effect
Description: Potential cytotoxicity of 24 and its similarly potent analogs 27 and 30 was assessed in 3-(4,5-dimethylthiazol-2-yl)-2,5-diphenyl-2H-tetrazolium bromide (MTT) assays performed on human 1321N1 astrocytoma cells (Supplementary Table S3). This cell line was chosen since it is well-established for the screening of cytotoxic drugs, making it a reliable choice for assessing cytotoxicity.[46]
For the experiment, 1321N1 astrocytoma cells were seeded at a density of 1 × 10^5 cells/well in 180 µL of cell medium into transparent 96-well plates, whereby the outer wells only contained buffer (to avoid an edge effect). Cells were incubated for 24 h at 37°C, 5% CO2. Compound dilutions were prepared in DMSO. […] Subsequently, 20 µL of these compound dilutions were added to each well so that astrocytoma cells were incubated with varying concentrations of MRGPRX2 antagonists (0.01 µM–10 µM) at 37° C, 5% CO2. 5-Fluoruracil, a cytostatic drug, served as a positive control. Medium-containing DMSO in the absence of a compound served as a negative control. After 71 h, […] of MTT solution (5 mg/mL, prepared in Millipore water) was added to each well (final concentration 0.5 mg/mL) and cells were incubated again for another hour. Subsequently, the medium was removed, and cells were lyzed by adding 100 µL of DMSO per well. In order to dissolve the produced formazan dye crystals, plates were incubated for 2 min on a rotary shaker (150 rpm). Afterward, the UV absorbance at 570 nm was measured by using SoftMax® Pro5.1 Microplate Data Acquisition & Analysis Software (Molecular Devices, Sunnyvale, CA, USA). The UV absorbance at 690 nm was measured directly afterward to eliminate the background absorbance of residual medium and cell components. The values of the measured UV absorbance at 690 nm were subtracted from the values obtained by the measurement of UV absorbance at 570 nm. Three to four independent experiments were performed, each in triplicate.

[2] = Metabolic stability in human liver microsomes; type: in vitro ADME; settings: both sexes, human liver microsomes 0.25 mg/ml, compound 1 µM; for half-life at 1 µM: human, liver microsomes, read-out: T1/2 (half-life); for microsomal CLint at 1 µM: read-out: Clint (intrinsic clearance)
MRGPRX2 [3] = target: T1, MRGPRX2 (Homo sapiens, UniProt Q96LB1); experiment: β-arrestin assay (agonist mode), β-arrestin CHO cells recombinantly expressing MRGPRX2; type: cell-based; settings: for EC50: agonist test, read-out: β-Arrestin assay EC50 ± SEM; for β-Arrestin assay % activation: normalized to CST-14 (EC80 5,000 nM)
T1 sequence (Q96LB1 1-330): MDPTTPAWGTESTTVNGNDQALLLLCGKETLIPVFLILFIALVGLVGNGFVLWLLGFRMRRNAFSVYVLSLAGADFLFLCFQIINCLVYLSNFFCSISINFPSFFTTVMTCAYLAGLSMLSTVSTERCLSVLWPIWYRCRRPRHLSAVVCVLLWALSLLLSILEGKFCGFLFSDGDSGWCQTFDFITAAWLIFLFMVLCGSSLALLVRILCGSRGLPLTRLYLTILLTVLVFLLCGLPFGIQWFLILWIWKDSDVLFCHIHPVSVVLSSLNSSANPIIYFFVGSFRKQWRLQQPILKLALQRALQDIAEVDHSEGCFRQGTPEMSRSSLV
Excerpt: Eurofins DiscoverX (Fremont, CA, USA) provided engineered Chinese hamster ovary (CHO) cells stably expressing β-arrestin-2 fused to a large β-galactosidase fragment (enzyme acceptor, EA). These CHO-K1-β-arrestin-2 cells were commercially available (93-0164). CHO-K1-β-arrestin-2 cells that additionally expressed MRGPRX1, -2, or -4 fused to the fragment ProLink™ (PK) were also purchased from the same company (93-0919C2, 93-0309C2, and 3-0541C2A, respectively). CHO cells expressing MRGPRX3 were generated as previously […].[31] The cells were grown in F-12 Ham Nutrient Mixture (Life Technologies) supplemented with 10% FBS, 100 U/mL of penicillin, 100 µg/mL of streptomycin (PAN-Biotech), 300 μg/mL of hygromycin B (PAN-Biotech), and 800 μg/mL of gentamicin (PAN-Biotech) at 37 °C and 5% CO2.).
The assays were carried out as previously described.[22] […] After 30 min of incubation at 37 °C and 5% CO2, Cortistatin-14 (CST-14, Bioscience, Bristol, United Kingdom) or another MRGPRX2 agonist that served as a standard agonist was added, and the mixture was incubated for 90 min at 37 °C and 5% CO2. Next, a detection reagent (50 µL, DiscoverX) was added, and the mixture was incubated at room temperature in the dark for 60 min. Chemiluminescence was measured on a Mithras LB 940 plate reader (Berthold Technologies, Bad Wildbad, Germany). The results represent means ± SEM of three to five independent experiments, each in duplicates.
^d β-Arrestin CHO cells recombinantly expressing MRGPRX2
^f Percentage of activation of normalized to CST-14 (EC80 5,000 nM)

MRGPRX2 [4] = target: T1, MRGPRX2; experiment: β-arrestin recruitment assay (antagonist mode), β-arrestin-CHO cells recombinantly expressing MRGPRX2; type: cell-based; design: expressed in transfected cells; settings: for Ki: versus CST-14 (EC80 1,000 nM, EC50 483 nM), Cheng-Prusoff, read-out: β-Arrestin assay Ki ± SEM
MRGPRX2 [5] = target: T1, MRGPRX2; experiment: Ca2+ mobilization assay, LN229 cells overexpressing MRGPRX2; type: cell-based; design: expressed in transfected cells; host or cells: LN229 human glioblastoma cells; plasmid pLXSN-MRGPRX2 (Addgene #213960); settings: for Ki: versus CST-14 (EC80 800 nM, EC50 452 nM), Cheng-Prusoff, read-out: Ca2+ assay Ki ± SEM
Description: Glioblastoma LN229-MRGPRX2 stably expressing MRGPRX2 (produced by retroviral transfection) were seeded into black sterile 96-well microplates at a density of 5 × 10^4 cells/well in 200 µL of DMEM/F12-Nut Mix medium, supplemented with 10% FCS, 100 U/mL of penicillin 100 µg/mL of streptomycin, and 200 µg/mL of G418 and incubated for 18–22 h.
The next day Fluo-4 AM Solution (1 mM) (Thermo Fisher Scientific) was prepared and used to prepare cell loading dye solution consisting of 4970 µL of Hank’s Buffered Saline Solution (HBSS) buffer, 15 µL of 20% Pluronic-F and 15 µL of 1 mM Fluo-4 AM. Next, the cell medium was removed and exchanged for 40 µL of dye solution per well (final concentration of Fluo-4 AM: 3 µM). The cell plate was incubated for 60 min in the dark at room temperature, then the dye solution was removed and replaced by 189 µL HBSS. Subsequently, 1 µL of antagonist diluted in DMSO was added and incubated for 30 min at room temperature and in the dark (final DMSO concentration 0.5%, v/v). CST-14 or another agonist prepared in HBSS as well as carbachol (final concentration 100 µM) were pipetted (10 µL) using a FlexStation® 3 Multi-Mode Microplate Reader. For the determination of baseline fluorescence, HBSS buffer containing solvent of the investigated compound was used. Fluorescence was measured for 120 intervals of 1 s (number of flashes: 10) at a wavelength of 525 nm (excitation 485 nm) using the SoftMax® Pro5.1 Microplate Data Acquisition & Analysis Software. Three independent experiments were performed in duplicates. Measurements are provided in relative fluorescence units and normalized to the maximal effect of CST-14.

MRGPRX2 [6] = target: T1, MRGPRX2; design: expressed in transfected cells; host or cells: LN229 human glioblastoma cells; plasmid pLXSN-MRGPRX2 (Addgene #213960); method as in earlier work; settings: read-out: EC50 as MRGPRX2 agonist; cited from earlier work
mouse MRGPRB2 = target: T2, mouse MRGPRB2 (Mus musculus, UniProt Q3KNA1); design: method as in PMID 38184723; settings: cited from earlier work
T2 construct: expressed in transfected cells; host or cells: 1321N1 astrocytoma cells; plasmid pLVX-IRES-MRGPRB2-mCherry (Addgene #213961)
T2 sequence (Q3KNA1 1-338): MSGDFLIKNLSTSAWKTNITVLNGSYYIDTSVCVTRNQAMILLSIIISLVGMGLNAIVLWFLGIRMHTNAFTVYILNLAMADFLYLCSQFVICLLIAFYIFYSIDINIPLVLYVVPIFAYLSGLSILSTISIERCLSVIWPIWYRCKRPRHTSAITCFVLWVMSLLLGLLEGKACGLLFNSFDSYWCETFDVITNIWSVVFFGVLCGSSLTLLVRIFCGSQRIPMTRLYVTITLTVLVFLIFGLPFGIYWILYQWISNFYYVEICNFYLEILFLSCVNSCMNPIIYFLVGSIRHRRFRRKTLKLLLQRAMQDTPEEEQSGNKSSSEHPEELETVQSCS

MRGPRX2 [7] = target: T1, MRGPRX2; experiment: TRUPATH Gαq dissociation assay, LN229 cells expressing MRGPRX2; type: cell-based; design: expressed in transfected cells; host or cells: LN229 human glioblastoma cells; plasmid pLXSN-MRGPRX2 (Addgene #213960); settings: read-out: EC50 of agonist, Gαq dissociation
Description: (§1) Fig. 3 Biological characterization of PSB-172656. a Selectivity of PSB-172656 (100 nM) for MRGPRX2 over MRGPRX1, MRGPRX3, and MRGPRX4 measured in β-arrestin assays utilizing β-arrestin-CHO cells with recombinant expression of the respective receptor. MRGPRX1 was activated by BAM-22P (8.5 µM),[19] MRGPRX2 was activated by CST-14 (1 µM), MRGPRX3 was activated by PSB-20294 (10 µM), MRGPRX4 was activated by PSB-18061 (2.6 µM).[44] Data represent mean values ± SEM of 3-4 biological replicates, performed in duplicates. […] Data are means ± SEM of 3 biological replicates, in duplicates. Statistical significance was determined by one-way ANOVA (Tukey’s multiple comparison) test (ns P > 0.05). […] Data are means ± SEM of 3 biological replicates, performed in duplicates. e Shift assay to determine inhibition type of PSB-172656 versus CST-14. […] Extrapolated data were not used for analysis but only shown for a comprehensive view. f Schild plot for the effect of PSB-172656 on the concentration-response curves for CST-14. […]
(§2) To further investigate PSB-172656 signaling, direct activation of the relevant G protein subunits, Gαq and Gαi1,[32] was studied. This was assessed using G protein dissociation assays and LN229 cells stably overexpressing MRGPRX2 while transiently expressing the investigated G protein (Fig. 3c, d).[47]

MRGPRX2 [8] = target: T1, MRGPRX2; experiment: TRUPATH Gαi1 dissociation assay, LN229 cells expressing MRGPRX2; type: cell-based; design: expressed in transfected cells; host or cells: LN229 human glioblastoma cells; plasmid pLXSN-MRGPRX2 (Addgene #213960); settings: read-out: EC50 of agonist, Gαi1 dissociation
Description: as §1, §2

| SMILES | CC50 at 72 h [1] [µM] | cytotoxicity at 72 h, 10000 nM [1] [%] | half-life at 1 µM [2] [min] | microsomal CLint at 1 µM [2] [µL/min/mg] | EC50 (MRGPRX2 [3]) [µM] | β-Arrestin assay % activation (MRGPRX2 [3]) [%] | Ki (MRGPRX2 [4]) [nM] | fold less potent than 24 (MRGPRX2 [5]) [fold] | Ki (MRGPRX2 [5]) [nM] | MRGPRX2 antagonistic potency in Ca2+ assay, in words (MRGPRX2 [5]; versus CST-14) | EC50 (MRGPRX2 [6]) [nM] | EC80 of agonist at MRGPRB2, Ca2+ assay (mouse MRGPRB2) [nM] | EC80 of agonist, β-arrestin assay (MRGPRX2 [4]) [µM] | EC50 (MRGPRX2 [4]; agonist concentration-response curve, read-out: EC50 of agonist, β-arrestin assay) [nM] | EC50 (MRGPRX2 [4]; without antagonist, read-out: EC50 of CST-14, shift assay) [nM] | EC80 of agonist, Ca2+ assay (MRGPRX2 [5]) [nM] | EC50 (MRGPRX2 [5]; agonist concentration-response curve) [nM] | EC50 (MRGPRX2 [7]) [nM] | EC50 (MRGPRX2 [8]) [nM] |
| --- | --- | --- | --- | --- | --- | --- | --- | --- | --- | --- | --- | --- | --- | --- | --- | --- | --- | --- | --- |
| CCc1c(C(C)C)[nH]c2nc3cc(C)c(C)cc3n2c1=O [Compound 27] | > 10 | 28 | 10.6 | 131 | > 10 | 0 | 28.5 ± 23.9 | 5 | 6.64 |  |  |  |  |  |  |  |  |  |  |
| CCc1c(C(C)C)[nH]c2nc3cc(F)ccc3n2c1=O [Compound 30, 3-ethyl-8-fluoro-2-isopropylbenzo[4,5]imidazo[1,2-a]pyrimidin-4(1H)-one] | > 10 | 30 | 14 | 100 | > 10 | -3 | 5.89 ± 2.86 |  | 0.455 | subnanomolar potencies |  |  |  |  |  |  |  |  |  |
| CN(C)[C@@H]1CCN(c2cc(-c3ccccc3)nc3ccnn23)C1 [ZINC-3573] |  |  |  |  |  |  |  |  |  |  | 760 |  |  |  |  |  |  |  |  |
| C[C@@H](O)[C@@H]1NC(=O)[C@H](CCCCN)NC(=O)[C@H](Cc2c[nH]c3ccccc23)NC(=O)[C@H](Cc2ccccc2)NC(=O)[C@H](Cc2ccccc2)NC(=O)[C@H](CC(N)=O)NC(=O)[C@H](CCCCN)NC(=O)[C@@H](NC(=O)[C@@H]2CCCN2)CSSC[C@@H](C(=O)N[C@@H](CCCCN)C(=O)O)NC(=O)[C@H](CO)NC(=O)[C@H](CO)NC(=O)[C@H](Cc2ccccc2)NC1=O [CST-14, reference compound] (H-PCKNFFWKTFSSCK-OH; disulfide 2-13; N-terminus and C-terminus assumed) |  |  |  |  |  |  |  |  |  |  |  | 2000 | 1.0 | 483 | 283 ± 45 | 800 | 452 ± 49 | 499 ± 207 | 113 ± 16 |
